15 compounds from patent US20250163047A1, “HETEROCYCLIC COMPOUNDS, COMPOSITIONS THEREOF, AND METHODS OF TREATMENT THEREWITH” (BeiGene, Ltd., priority 2022, published 2025) can be followed below.

One assay deals with T1, Cbl (aa49-434) (Homo sapiens, UniProt P22681).
T1 construct: Cbl (aa49-434, in-house); made in house
T1 sequence (P22681 49-434): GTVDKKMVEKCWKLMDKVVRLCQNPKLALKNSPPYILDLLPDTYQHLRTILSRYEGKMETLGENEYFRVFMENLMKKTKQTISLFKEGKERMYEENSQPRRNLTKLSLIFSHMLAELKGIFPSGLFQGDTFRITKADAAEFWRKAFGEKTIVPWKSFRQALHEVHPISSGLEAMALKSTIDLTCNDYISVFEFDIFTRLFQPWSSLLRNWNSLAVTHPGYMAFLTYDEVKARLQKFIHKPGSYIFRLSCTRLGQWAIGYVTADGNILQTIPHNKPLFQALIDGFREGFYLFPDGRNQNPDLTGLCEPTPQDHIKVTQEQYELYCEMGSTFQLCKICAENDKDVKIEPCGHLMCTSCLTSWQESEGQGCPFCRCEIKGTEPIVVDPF
The assay is described as follows: Co-expressed Cbl with BirA biochemical assay (CBL/E2-Ub binding, HTRF). The following applies: 0.6 nM Cbl co-expressed with BirA, read-out: co-express CBL/E2-Ub-binding assay IC50. The source says:
(§1) The assay in the absence of a Cbl-b/Cbl inhibitor, where phosphorylation of Cbl-b/Cbl by the Src kinase allows UbcH5B-Ub to bind to Cbl-b/Cbl and brings the Bodipy-Fluorescein tagged ubiquitin in proximity to the streptavidin-terbium bound to the N-terminal biotinylated Avi-tagged Cbl-b/Cbl. […] The lack of a FRET signal indicates Cbl-b/Cbl is inhibited by the Cbl-b/Cbl inhibitor.
In general terms: In TR-FRET formats the signal depends on donor and acceptor labels being close together.

The next assay addresses T2, Cbl-b (aa36-427) (Homo sapiens, UniProt Q13191).
T2 construct: Cbl-b (aa36-427, in-house); made in house
The assay is described as follows: Co-expressed Cbl-b with BirA biochemical assay (CBLB/E2-Ub binding, HTRF). The note with it: 0.6 nM Cbl-b co-expressed with BirA, HTRF; read-out: co-express CBLB/E2-Ub-binding assay IC50.
Text: as §1

T2 sequence (Q13191 36-427): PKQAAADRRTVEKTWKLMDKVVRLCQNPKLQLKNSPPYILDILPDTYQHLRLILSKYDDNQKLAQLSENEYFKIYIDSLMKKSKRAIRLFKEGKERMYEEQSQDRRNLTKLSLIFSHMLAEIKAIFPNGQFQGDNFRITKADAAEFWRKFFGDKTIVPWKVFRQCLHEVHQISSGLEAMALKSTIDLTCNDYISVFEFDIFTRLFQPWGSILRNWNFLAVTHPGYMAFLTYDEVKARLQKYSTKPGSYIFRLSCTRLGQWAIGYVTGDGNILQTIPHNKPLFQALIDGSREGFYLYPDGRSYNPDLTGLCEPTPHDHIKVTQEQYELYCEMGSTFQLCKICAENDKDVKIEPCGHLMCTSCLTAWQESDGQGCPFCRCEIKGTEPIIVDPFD

For `Cc1cnc2c(C(=O)Nc3cccc([C@]4(c5nncn5C)C[C@@H](CC#N)C4)c3)cc(CN3CC[C@H](F)[C@H](C)C3)cn12` [Compound A47, N-(3-((1s,3S)-3-(cyanomethyl)-1-(4-methyl-4H-1,2,4-triazol-3-yl)cyclobutyl)phenyl)-6-(((3R,4S)-4-fluoro-3-methylpiperidin-1-yl)methyl)-3-methylimidazo[1,2-a]pyridine-8-carboxamide], the IC50 at Cbl (aa49-434) was 7 nM; on Cbl-b (aa36-427) it was 1.4 nM.
For `Cn1cnnc1[C@]1(c2cccc(NC(=O)c3cc(CNCC4CCCCC4)c4c(n3)C(C)(C)CC4)c2)C[C@H](CC#N)C1` [Compound C14, N-(3-((1s, 3s)-3-(cyanomethyl)-1-(4-methyl-4H-1,2,4-triazol-3-yl)cyclobutyl)phenyl)-4-(((cyclohexylmethyl)amino)methyl)-7,7-dimethyl-6,7-dihydro-5H-cyclopenta[b]pyridine-2-carboxamide] the same measures were 6.6 nM and 2 nM.
Turning to `Cn1cnnc1[C@]1(c2cccc(NC(=O)c3cc(CNCC4CCC(F)(F)CC4)c4[nH]ccc4n3)c2)C[C@H](CC#N)C1` [Compound B22, N-(3-((1s, 3s)-3-(cyanomethyl)-1-(4-methyl-4H-1,2,4-triazol-3-yl)cyclobutyl)phenyl)-7-((((4,4-difluorocyclohexyl)methyl)amino)methyl)-1H-pyrrolo[3,2-b]pyridine-5-carboxamide], the results for the IC50 on Cbl (aa49-434) and on Cbl-b (aa36-427) were 19.5 nM and 4 nM, respectively.
For `Cn1cnnc1[C@]1(c2cncc(NC(=O)c3cc(CNC4(C)CC4)cn4ncnc34)c2)C[C@H](C)C1` [Compound A88, N-(5-((1s, 3s)-3-methyl-1-(4-methyl-4H-1,2,4-triazol-3-yl)cyclobutyl)pyridin-3-yl)-6-(((1-methylcyclopropyl)amino)methyl)-[1,2,4]triazolo[1,5-a]pyridine-8-carboxamide] the same measures were 20 nM and 4.4 nM.
On the same counts, the results for `Cc1cnc2c(C(=O)Nc3cccc([C@]4(c5nncn5C)C[C@@H](CC#N)C4)c3)cc(CN3CCC[C@H](C)C3)cn12` [Compound A10, 3-methyl-6-{[(3S)-3-methylpiperidin-1-yl]methyl}-N-{3-[(1s, 3s)-3-(cyanomethyl)-1-(4-methyl-1,2,4-triazol-3-yl)cyclobutyl]phenyl}imidazo[1,2-a]pyridine-8-carboxamide] are 70.1 nM and 12 nM.
For `Cn1cnnc1C[C@]1(c2cccc(NC(=O)c3cc(CNCC4CCCC(F)(F)C4)c4c(n3)C(C)(C)CC4)c2)C[C@H](C#N)C1` (stereo partly drawn) [Compound C15, N-(3-((1r, 3r)-3-cyano-1-((4-methyl-4H-1,2,4-triazol-3-yl)methyl)cyclobutyl)phenyl)-4-((((3,3-difluorocyclohexyl)methyl)amino)methyl)-7,7-dimethyl-6,7-dihydro-5H-cyclopenta[b]pyridine-2-carboxamide] the same measures were 5.2 nM and 1.8 nM.
In the case of `Cn1cnnc1[C@]1(c2cccc(NC(=O)c3cc(CNCC4CCC(F)(F)CC4)c4c(n3)C(C)(C)CO4)c2)C[C@H](CC#N)C1` [Compound C20, N-(3-((1s, 3s)-3-(cyanomethyl)-1-(4-methyl-4H-1,2,4-triazol-3-yl)cyclobutyl)phenyl)-7-((((4,4-difluorocyclohexyl)methyl)amino)methyl)-3,3-dimethyl-2,3-dihydrofuro[3,2-b]pyridine-5-carboxamide], the IC50 at Cbl (aa49-434) was 79 nM; on Cbl-b (aa36-427) it was 6.9 nM.
On the same counts, the results for `C[C@H](NCc1cc(C(=O)Nc2cccc([C@]3(c4nncn4C)C[C@@H](C)C3)c2)c2ncc(F)n2c1)C1CCC1` [Compound A65, 6-((((S)-1-cyclobutylethyl)amino)methyl)-3-fluoro-N-(3-((1s,3R)-3-methyl-1-(4-methyl-4H-1,2,4-triazol-3-yl)cyclobutyl)phenyl)imidazo[1,2-a]pyridine-8-carboxamide] are 2 nM and 0.9 nM.
For `C[C@H]1CCCN(Cc2cc(C(=O)Nc3cccc([C@]4(Cc5nncn5C)C[C@@H](C#N)C4)c3)nc3c2OCC3(C)C)C1` [Compound C11, 3,3-dimethyl-7-{[(3S)-3-methylpiperidin-1-yl]methyl}-N-{3-[(1r, 3r)-3-cyano-1-[(4-methyl-1,2,4-triazol-3-yl)methyl]cyclobutyl]phenyl}-2H-furo[3,2-b]pyridine-5-carboxamide], the IC50 at Cbl (aa49-434) was 1.5 nM; at Cbl-b (aa36-427) it was 0.8 nM.
`Cn1cnnc1[C@]1(c2cncc(NC(=O)c3cc(CNC4(C)CC4)cc4c(F)cnn34)c2)C[C@H](C)C1` [Compound A93, 3-fluoro-N-(5-((1s, 3s)-3-methyl-1-(4-methyl-4H-1,2,4-triazol-3-yl)cyclobutyl)pyridin-3-yl)-5-(((1-methylcyclopropyl)amino)methyl)pyrazolo[1,5-a]pyridine-7-carboxamide]: the results for the IC50 on Cbl (aa49-434) and on Cbl-b (aa36-427) were 5.2 nM and 1.6 nM, respectively.
For `Cn1cnnc1[C@]1(c2cccc(NC(=O)c3cc(CNC4(C)CC4)cn4c(Cl)cnc34)c2)C[C@H](C)C1` [Compound A67, 3-chloro-N-(3-((1s, 3s)-3-methyl-1-(4-methyl-4H-1,2,4-triazol-3-yl)cyclobutyl)phenyl)-6-(((1-methylcyclopropyl)amino)methyl)imidazo[1,2-a]pyridine-8-carboxamide] the same measures were 2.8 nM and 0.5 nM.
For `Cn1cnnc1[C@]1(c2cccc(NC(=O)c3cc(CNC4(C)CCC4)cn4ccnc34)c2)C[C@H](C)C1` [Compound A39, N-(3-((1s, 3s)-3-methyl-1-(4-methyl-4H-1,2,4-triazol-3-yl)cyclobutyl)phenyl)-6-(((1-methylcyclobutyl)amino)methyl)imidazo[1,2-a]pyridine-8-carboxamide] the same measures were 14.1 nM and 2.7 nM.
On the same counts, the results for `Cn1cnnc1[C@]1(c2cncc(NC(=O)c3cc(CNC4(C)CCC4)cn4c(F)cnc34)c2)C[C@H](C)C1` [Compound A76, 3-fluoro-N-(5-((1s, 3s)-3-methyl-1-(4-methyl-4H-1,2,4-triazol-3-yl)cyclobutyl)pyridin-3-yl)-6-(((1-methylcyclobutyl)amino)methyl)imidazo[1,2-a]pyridine-8-carboxamide] are 8.3 nM and 2.6 nM.
On to `CC(C)CNCc1cc(C(=O)Nc2cccc([C@]3(c4nncn4C)C[C@@H](C)C3)c2)c2ncc(F)n2c1` [Compound A62, 3-fluoro-6-((isobutylamino)methyl)-N-(3-((1s, 3s)-3-methyl-1-(4-methyl-4H-1,2,4-triazol-3-yl)cyclobutyl)phenyl)imidazo[1,2-a]pyridine-8-carboxamide], for which the IC50 is 7 nM on Cbl (aa49-434) and 1.1 nM at Cbl-b (aa36-427).
For `C[C@H](NCc1cc(C(=O)Nc2cccc([C@]3(c4nncn4C)C[C@@H](C)C3)c2)c2ncc(F)n2c1)C1CC1` [Compound A19, 6-((((S)-1-cyclopropylethyl)amino)methyl)-3-fluoro-N-(3-((1s,3R)-3-methyl-1-(4-methyl-4H-1,2,4-triazol-3-yl)cyclobutyl)phenyl)imidazo[1,2-a]pyridine-8-carboxamide] the same measures were 8.2 nM and 1.7 nM.
